Experimental data published in PubChem BioAssay (NCI).
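Test compounds were applied to cells in 96-well plates for 48 hours at 5 doses. TGI marks complete inhibition of growth.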

Columns and labels:
Assay in all cases: growth of human tumour cells (NCI), 48 h
786-0 renal = test system: 786-0 renal
A498 renal = test system: A498 renal
A549 NSCLC = test system: A549 NSCLC
ACHN renal = test system: ACHN renal
BT-549 breast = test system: BT-549 breast
CAKI-1 renal = test system: CAKI-1 renal
COLO 205 colon = test system: COLO 205 colon
DU-145 prostate = test system: DU-145 prostate
EKVX NSCLC = test system: EKVX NSCLC
HCC-2998 colon = test system: HCC-2998 colon
HCT-116 colon = test system: HCT-116 colon
HCT-15 colon = test system: HCT-15 colon
HL-60(TB) leukemia = test system: HL-60(TB) leukemia
HOP-62 NSCLC = test system: HOP-62 NSCLC
HOP-92 NSCLC = test system: HOP-92 NSCLC
HS 578T breast = test system: HS 578T breast
HT29 colon = test system: HT29 colon
IGROV1 ovarian = test system: IGROV1 ovarian
KM12 colon = test system: KM12 colon
LOX IMVI melanoma = test system: LOX IMVI melanoma
M14 melanoma = test system: M14 melanoma
MALME-3M melanoma = test system: MALME-3M melanoma
MCF7 breast = test system: MCF7 breast
MDA-MB-231 breast = test system: MDA-MB-231 breast
MDA-MB-435 = test system: MDA-MB-435
MDA-N = test system: MDA-N
NCI-H226 lung = test system: NCI-H226 lung
NCI-H23 lung = test system: NCI-H23 lung
NCI-H460 lung = test system: NCI-H460 lung
NCI-H522 lung = test system: NCI-H522 lung
NCI/ADR-RES ovarian = test system: NCI/ADR-RES ovarian
OVCAR-3 ovarian = test system: OVCAR-3 ovarian
OVCAR-4 ovarian = test system: OVCAR-4 ovarian
OVCAR-5 ovarian = test system: OVCAR-5 ovarian
OVCAR-8 ovarian = test system: OVCAR-8 ovarian
PC-3 prostate = test system: PC-3 prostate
RPMI-8226 leukemia = test system: RPMI-8226 leukemia
SF-268 CNS = test system: SF-268 CNS
SF-295 CNS = test system: SF-295 CNS
SF-539 CNS = test system: SF-539 CNS
SK-MEL-2 melanoma = test system: SK-MEL-2 melanoma
SK-MEL-28 melanoma = test system: SK-MEL-28 melanoma
SK-MEL-5 melanoma = test system: SK-MEL-5 melanoma
SK-OV-3 ovarian = test system: SK-OV-3 ovarian
SN12C renal = test system: SN12C renal
SNB-19 CNS = test system: SNB-19 CNS
SNB-75 CNS = test system: SNB-75 CNS
SR leukemia = test system: SR leukemia
SW-620 colon = test system: SW-620 colon
T-47D breast = test system: T-47D breast
TK-10 renal = test system: TK-10 renal
U251 CNS = test system: U251 CNS
UACC-257 melanoma = test system: UACC-257 melanoma
UACC-62 melanoma = test system: UACC-62 melanoma
CCRF-CEM leukemia = test system: CCRF-CEM leukemia
K-562 leukemia = test system: K-562 leukemia
MOLT-4 leukemia = test system: MOLT-4 leukemia
RXF 393 renal = test system: RXF 393 renal
UO-31 renal = test system: UO-31 renal

CCNc1nc2c(ncn2C2CC(O)C(COP(=O)(O)O)O2)c(=O)[nH]1 (stereo not given)
TGI (786-0 renal): > 100 µM | TGI (A498 renal): > 100 µM | TGI (A549 NSCLC): > 100 µM | TGI (ACHN renal): > 100 µM | TGI (BT-549 breast): > 100 µM | TGI (CAKI-1 renal): > 100 µM | TGI (COLO 205 colon): > 100 µM | TGI (DU-145 prostate): > 100 µM | TGI (EKVX NSCLC): > 100 µM | TGI (HCC-2998 colon): > 100 µM | TGI (HCT-116 colon): > 100 µM | TGI (HCT-15 colon): > 100 µM | TGI (HL-60(TB) leukemia): > 100 µM | TGI (HOP-62 NSCLC): > 100 µM | TGI (HOP-92 NSCLC): > 100 µM | TGI (HS 578T breast): > 100 µM | TGI (HT29 colon): > 100 µM | TGI (IGROV1 ovarian): > 100 µM | TGI (KM12 colon): > 100 µM | TGI (LOX IMVI melanoma): > 100 µM | TGI (M14 melanoma): > 100 µM | TGI (MALME-3M melanoma): > 100 µM | TGI (MCF7 breast): > 100 µM | TGI (MDA-MB-231 breast): > 100 µM | TGI (MDA-MB-435): > 100 µM | TGI (MDA-N): > 100 µM | TGI (NCI-H226 lung): > 100 µM | TGI (NCI-H23 lung): > 100 µM | TGI (NCI-H460 lung): > 100 µM | TGI (NCI-H522 lung): > 100 µM | TGI (NCI/ADR-RES ovarian): > 100 µM | TGI (OVCAR-3 ovarian): > 100 µM | TGI (OVCAR-4 ovarian): > 100 µM | TGI (OVCAR-5 ovarian): > 100 µM | TGI (OVCAR-8 ovarian): > 100 µM | TGI (PC-3 prostate): > 100 µM | TGI (RPMI-8226 leukemia): > 100 µM | TGI (SF-268 CNS): > 100 µM | TGI (SF-295 CNS): > 100 µM | TGI (SF-539 CNS): > 100 µM | TGI (SK-MEL-2 melanoma): > 100 µM | TGI (SK-MEL-28 melanoma): > 100 µM | TGI (SK-MEL-5 melanoma): > 100 µM | TGI (SK-OV-3 ovarian): > 100 µM | TGI (SN12C renal): > 100 µM | TGI (SNB-19 CNS): > 100 µM | TGI (SNB-75 CNS): > 100 µM | TGI (SR leukemia): > 100 µM | TGI (SW-620 colon): > 100 µM | TGI (T-47D breast): > 100 µM | TGI (TK-10 renal): > 100 µM | TGI (U251 CNS): > 100 µM | TGI (UACC-257 melanoma): > 100 µM | TGI (UACC-62 melanoma): > 100 µM

Cc1cc(=O)oc2c(C)c3oc(CBr)c(Br)c3cc12
TGI (786-0 renal): 29.7 µM | TGI (A549 NSCLC): 37.2 µM | TGI (ACHN renal): > 100 µM | TGI (BT-549 breast): > 100 µM | TGI (CAKI-1 renal): 31.6 µM | TGI (CCRF-CEM leukemia): > 100 µM | TGI (COLO 205 colon): > 100 µM | TGI (DU-145 prostate): > 100 µM | TGI (EKVX NSCLC): > 100 µM | TGI (HCC-2998 colon): 70.7 µM | TGI (HCT-116 colon): 67.9 µM | TGI (HCT-15 colon): > 100 µM | TGI (HL-60(TB) leukemia): > 100 µM | TGI (HOP-62 NSCLC): > 100 µM | TGI (HS 578T breast): > 100 µM | TGI (HT29 colon): > 100 µM | TGI (IGROV1 ovarian): 36.1 µM | TGI (K-562 leukemia): 66.8 µM | TGI (KM12 colon): 83.8 µM | TGI (LOX IMVI melanoma): 28.8 µM | TGI (M14 melanoma): 50.3 µM | TGI (MCF7 breast): > 100 µM | TGI (MDA-MB-231 breast): > 100 µM | TGI (MDA-MB-435): > 100 µM | TGI (MDA-N): > 100 µM | TGI (MOLT-4 leukemia): > 100 µM | TGI (NCI-H226 lung): > 100 µM | TGI (NCI-H23 lung): > 100 µM | TGI (NCI-H460 lung): 49 µM | TGI (NCI-H522 lung): 30.2 µM | TGI (NCI/ADR-RES ovarian): 95.7 µM | TGI (OVCAR-3 ovarian): > 100 µM | TGI (OVCAR-4 ovarian): 88.1 µM | TGI (OVCAR-5 ovarian): 80 µM | TGI (OVCAR-8 ovarian): 97.7 µM | TGI (PC-3 prostate): > 100 µM | TGI (RPMI-8226 leukemia): 64.6 µM | TGI (RXF 393 renal): 41.6 µM | TGI (SF-268 CNS): 78.6 µM | TGI (SF-295 CNS): 42.5 µM | TGI (SF-539 CNS): > 100 µM | TGI (SK-MEL-2 melanoma): > 100 µM | TGI (SK-MEL-28 melanoma): > 100 µM | TGI (SK-MEL-5 melanoma): 33.8 µM | TGI (SK-OV-3 ovarian): > 100 µM | TGI (SN12C renal): 58.7 µM | TGI (SNB-19 CNS): > 100 µM | TGI (SNB-75 CNS): 70 µM | TGI (SR leukemia): 98.5 µM | TGI (SW-620 colon): 52.1 µM | TGI (T-47D breast): 72.6 µM | TGI (TK-10 renal): > 100 µM | TGI (U251 CNS): > 100 µM | TGI (UACC-257 melanoma): > 100 µM | TGI (UACC-62 melanoma): 37.6 µM | TGI (UO-31 renal): 36.5 µM
